Data taken from US12409151B2, “Transdermal device comprising NSAID or analgesic prodrug molecules” (Remedy Diagnostics LLC, priority 2019, dated 2025).
Converted amounts (≈) assume the structure as drawn. “And” between values parts separate entries of the source, which are not always exact repeats. Identical values can stand only once. Like-named read-outs stand apart in the source and are kept apart here.

Columns and labels:
[1] = cited from earlier work
[2] = Solutions in permeation enhanced vehicle formulation F3; assay type: physicochemical; details: F3: 33.3% DMSO and 66.6% ethanol; dissolved in neat ethanol, then DMSO added
Procedure: A permeation enhanced vehicle formulation F3 was developed consisting of 33.3% dimethylsulfoxide (DMSO) and 66.6% ethanol. A solution of Pro-APAP in F3 was prepared by first dissolving 30.5 mg of Pro-APAP into 2 mL neat ethanol, and then slowly adding 1 mL DMSO to reach a 3 mL 10.1 mg/mL solution with a final DMSO concentration of 33.3%.
A solution of Pro-IBU in F3 was prepared by first dissolving 67.0 mg of Pro-IBU into 1 mL neat ethanol, and then slowly adding 0.50 mL DMSO to reach 1.5 mL of a 44.6 mg/mL solution with a final DMSO concentration of 33.3%.

physchem = details: for solubility: organic solvent or mixture, thermodynamic from solid, solubility in F1
Procedure: This example illustrates the solubilities of APAP, IBU, Pro-APAP, and Pro-IBU in vehicle formulations F1 and F2.
Formulation F1 consisted of 50% Polyethylene Glycol (MW grade: 400) in 50% Ethanol. 50.2 mg of IBU was dissolved in 10.0 mL of F1, to produce a solution with a concentration of 5.02 mg/mL.

[3] = Skin permeation across excised human skin (Franz cell), UV-Vis of receptor media; assay type: in vitro ADME
Procedure: Skin Permeation Studies: Upon completion of the solubility and stability studies, the ability of the compound to permeate the skin in the selected solvent/vehicle was tested and the rate of permeation was measured to determine whether the compound permeated to an extent relevant for clinical use in a transdermal patch. Specifically, 4-acetoxyacetanilide was assessed for skin permeation across human skin over a 24 h time period.
Methods: For the skin permeation studies, a sample chamber containing 5 mL of 50% Polyethylene glycol 400 in ethanol was used as the receptor media. An initial sample of receptor media was drawn at the onset of testing to test for interferents and subsequent samples of 1 mL each were taken at the following time-points: 0.5 h, 1 h, 2 h, 5 h, 8 h, and 24 h. These samples were analyzed via UV-Vis spectroscopy (Tecan m200 Infinity Multi-Well Plate Reader) for absorbance at 246 nm and were blanked relative to that of the empty vehicle.
Materials: 4-acetoxyacetanilide (Pro-APAP), Formulation Solvent: 50% DMSO in Polyethylene Glycol 400, and Receptor Media: 50% Ethanol in Polyethylene Glycol 400 at 37° C.
Skin permeation studies: Upon completion of the solubility and stability studies, the ability of the pro-IBU compound to permeate the skin in the selected solvent/vehicle was tested and the rate of permeation was measured to determine whether the compound will permeate to an extent relevant for clinical use in a transdermal patch. Specifically, ethyl 2-(4-isobutylphenyl)-propanoate was assessed for skin permeation across human skin over a 24 h time period.
Materials: ethyl 2-(4-isobutylphenyl)-propanoate (pro-IBU), Formulation Solvent: 50% DMSO in Polyethylene Glycol 400, Receptor Media: 50% Ethanol in Polyethylene Glycol 400 at 37° C.

[4] = Stability of prodrugs in vehicle F3, monitored visually; assay type: physicochemical
Procedure: This example evaluated the stability of each of the prodrugs in vehicle F3.
A 50 mg/ml solution of Pro-APAP in F3 was prepared and monitored visually for three months to check for stability. […] was determined to be stable in this solution for the duration of the experiment.
A 70 mg/ml solution of Pro-IBU in F3 was prepared and monitored visually for three months to check for stability. […] was determined to be stable in this solution for the duration of the experiment.

[5] = 5 Hr, cumulative mass into receptor media, excised human skin, Franz cell 0.64 cm^2, 37° C.
[6] = 8 Hr, cumulative mass into receptor media, excised human skin, Franz cell 0.64 cm^2, 37° C.
[7] = 24 Hr, cumulative mass into receptor media, excised human skin, Franz cell 0.64 cm^2, 37° C.
[8] = 24 h, excised human skin, Franz cell, 37° C., 50% DMSO in PEG 400

Compound: CC(=O)Nc1ccc(OC(C)=O)cc1 [Pro-APAP, 4-acetoxyacetanilide]
- solubility ([1]; in chloroform, DMSO, and methanol): slightly soluble
- concentration of solution prepared in F3 [2]: 10100 µg/mL
- solubility in F1 (physchem): 12.5 mg/mL (≈ 64.7 mM)
- Maximum (mass released) [3, 5]: 10.8 µg and 10.88 µg
- Minimum (mass released) [3, 5]: 4.73 µg
- Average Mass Released ([3]; 5 Hr, cumulative mass into receptor media, excised human skin, Franz cell 0.64 cm^2, 37° C., 50% DMSO in PEG 400): 7.15 µg and 7.16 µg
- Maximum (mass released) [3, 6]: 15.34 µg
- Minimum (mass released) [3, 6]: 10.04 µg
- Average Mass Released ([3]; 8 Hr, cumulative mass into receptor media, excised human skin, Franz cell 0.64 cm^2, 37° C., 50% DMSO in PEG 400): 12.20 µg
- Maximum (mass released) [3, 7]: 91.94 µg and 91.95 µg
- Minimum (mass released) [3, 7]: 55.45 µg
- Average Mass Released ([3]; 24 Hr, cumulative mass into receptor media, excised human skin, Franz cell 0.64 cm^2, 37° C., 50% DMSO in PEG 400): 76.15 µg and 76.16 µg
- concentration of Pro-APAP in receptor media, maximum [3, 8]: 15.78 µg/mL
- concentration of Pro-APAP in receptor media, minimum [3, 8]: 8.76 µg/mL
- concentration of Pro-APAP in receptor media, average ([3]; 24 h, excised human skin, Franz cell, 37° C., formulation solvent 50% DMSO in PEG 400, receptor 50% ethanol in PEG 400, blank subtracted): 12.36 µg/mL
- permeability (permeation) coefficient range ([3]; calculated, human skin, 24 h study, 50% DMSO in PEG 400): 3.61-5.98 μg/h/cm^2
- total cumulative amount permeated ([3]; human skin over 24 h, 50% DMSO in PEG 400): around 80 μg per 0.66 cm^2
- stability in solution in F3 ([4]; 50 mg/ml solution in F3, monitored visually for three months): stable
- stability in solution in F3 ([4]; 70 mg/ml solution of Pro-IBU in F3, monitored visually for three months): stable

Compound: CC(=O)Nc1ccc(O)cc1 [APAP, acetaminophen, reference compound]
- solubility (physchem): 12.8 mg/mL (≈ 84.7 mM)

Compound: CCOC(=O)C(C)c1ccc(CC(C)C)cc1 (stereo not drawn) [Pro-IBU, ethyl 2-(4-isobutylphenyl)-propanoate]
- solubility ([1]; in DMSO and ethanol): soluble
- concentration of solution prepared in F3 [2]: 44600 µg/mL
- solubility (physchem): ≥ 24.9 mg/mL
- permeability (permeation) coefficient range [3]: 33.32-65.47 μg/h/cm^2
- lag time ([3]; human): 2 to 5 h
- Average Mass Released ([3]; human, 5 h): 18.06 µg
- Maximum (mass released) ([3]; human, 5 h): 54.17 µg
- Minimum (mass released) ([3]; human, 5 h): 0.00 µg
- mass detected in one of the wells ([3]; human, 5 h): 54 µg
- Average Mass Released ([3]; human, 8 h): 25.50 µg
- Maximum (mass released) ([3]; human, 8 h): 70.83 µg
- Minimum (mass released) ([3]; human, 8 h): 0.00 µg
- concentration of Pro-IBU in the receptor media ([3]; human, 24 h): ~200 µg/mL
